# pIC50: −log10 of the molar value. Active and inactive are the calls of the source. No cut-off for these calls is given here.
# How the values were obtained:
# 3T3-L1 [1] = test: Cytotoxicity against in mouse 3T3-L1 cells assessed as reduction in cell viability at 100 uM incubated for 24 hrs by MTT assay relative to control; type: cell-based; details: 3t3-l1, 24 h
# 3T3-L1 [2] = test: Inhibition of preadipocyte differentiation in mouse 3T3-L1 cells assessed as lipid droplet accumulation at 100 uM incubated for 8 days by Oil Red O staining method relative to untreated control; type: functional
# 3T3-L1 [3] = test: Anti-adipogenic activity against mouse 3T3-L1 cells assessed as decrease in C/EBPalpha protein expression measured after 8 days by Western blotting analysis relative to control; type: functional, cell-based; details: time 8.0 day
# 3T3-L1 [4] = test: Anti-adipogenic activity against mouse 3T3-L1 cells assessed as decrease in p-ERK protein expression measured after 8 days by Western blotting analysis relative to control; type: functional, cell-based; details: time 8.0 day
# 3T3-L1 [5] = test: Anti-adipogenic activity against mouse 3T3-L1 cells assessed as decrease in C/EBPbeta protein expression measured after 8 days by Western blotting analysis relative to control; type: functional, cell-based; details: time 8.0 day
# 3T3-L1 [6] = test: Anti-adipogenic activity against mouse 3T3-L1 cells assessed as decrease in ERK protein expression measured after 8 days by Western blotting analysis relative to control; type: functional, cell-based; details: time 8.0 day
# 3T3-L1 [7] = test: Anti-adipogenic activity against mouse 3T3-L1 cells assessed as decrease in GR protein expression measured after 8 days by Western blotting analysis relative to control; type: functional, cell-based; details: time 8.0 day
# 3T3-L1 [8] = test: Inhibition of preadipocyte differentiation in mouse 3T3-L1 cells assessed as lipid droplet accumulation incubated for 8 days by Oil Red O staining method relative to untreated control; type: functional, cell-based; details: 3T3-L1, 192 h
# 3T3-L1 [9] = test: Anti-adipogenic activity against mouse 3T3-L1 cells assessed as decrease in p-JNK protein expression measured after 8 days by Western blotting analysis relative to control; type: functional, cell-based; details: time 8.0 day
# 3T3-L1 [10] = test: Anti-adipogenic activity against mouse 3T3-L1 cells assessed as decrease in PPARgamma protein expression measured after 8 days by Western blotting analysis relative to control; type: functional, cell-based; details: time 8.0 day
# 3T3-L1 [11] = test: Anti-adipogenic activity against mouse 3T3-L1 cells assessed as decrease in P38 protein expression measured after 8 days by Western blotting analysis relative to control; type: functional, cell-based; details: time 8.0 day
# 3T3-L1 [12] = test: Anti-adipogenic activity against mouse 3T3-L1 cells assessed as decrease in p-P38 protein expression measured after 8 days by Western blotting analysis relative to control; type: functional, cell-based; details: time 8.0 day
# 3T3-L1 [13] = test: Anti-adipogenic activity against mouse 3T3-L1 cells assessed as decrease in JNK protein expression measured after 8 days by Western blotting analysis relative to control; type: functional, cell-based; details: time 8.0 day
Compound,Activity (3T3-L1 [1]),Activity (3T3-L1 [2]; time 8.0 day),Activity (3T3-L1 [2]; time 8 day) [%],other results
NC(=O)[C@H](O[C@@H]1O[C@H](CO[C@@H]2O[C@H](CO)[C@@H](O)[C@H](O)[C@H]2O)[C@@H](O)[C@H](O)[C@H]1O)c1ccccc1,Non-Toxic,Active,,
COC(=O)/C=C/c1ccc(O)c(O)c1 [METHYLCAFFEATE],Non-Toxic,,34.67,
C[C@@H]1O[C@@H](Oc2c(-c3ccc(O)cc3)oc3cc(O)cc(O)c3c2=O)[C@H](O)[C@H](O)[C@H]1O [AFZELIN],Non-Toxic,Active,,
C[C@@H]1O[C@@H](OC[C@H]2O[C@@H](Oc3c(-c4ccc(O)cc4)oc4cc(O)cc(O)c4c3=O)[C@H](O)[C@@H](O)[C@@H]2O)[C@H](O)[C@H](O)[C@H]1O [NICOTIFLOROSIDE],Non-Toxic,Active,,
NC(=O)[C@H](O[C@@H]1O[C@H](CO)[C@@H](O)[C@H](O)[C@H]1O)c1ccccc1,Non-Toxic,Active,,
NC(=O)[C@H](O)c1ccccc1,Non-Toxic,,12.23,Activity (3T3-L1 [3]): Dose-Dependent Effect; Activity (3T3-L1 [4]): Dose-Dependent Effect; Activity (3T3-L1 [5]): Dose-Dependent Effect; Activity (3T3-L1 [6]): Dose-Dependent Effect; Activity (3T3-L1 [7]): Dose-Dependent Effect; pIC50 (3T3-L1 [8]): 4.44; Activity (3T3-L1 [9]): Dose-Dependent Effect; Activity (3T3-L1 [10]): Dose-Dependent Effect; Activity (3T3-L1 [11]): Dose-Dependent Effect; Activity (3T3-L1 [12]): Dose-Dependent Effect; Activity (3T3-L1 [13]): Dose-Dependent Effect
COc1cc(/C=C/C(=O)O)ccc1O [FERULATE],Non-Toxic,,58.22,
O=C1C[C@@H](c2ccc(O)cc2)Oc2cc(O)cc(O)c21 [NARINGENIN],Non-Toxic,,44.21,
O=C1C[C@@H](c2ccc(O)cc2)Oc2cc(O[C@@H]3O[C@H](CO)[C@@H](O)[C@H](O)[C@H]3O)cc(O)c21 [PRUNIN],Non-Toxic,Active,,
O[C@@H]1[C@@H](O)[C@H](OCc2ccccc2)O[C@H](CO[C@H]2OC[C@H](O)[C@@H](O)[C@@H]2O)[C@H]1O,Non-Toxic,Active,,
O=c1ccn([C@@H]2O[C@H](CO)[C@@H](O)[C@H]2O)c(=O)[nH]1 [URIDINE],Non-Toxic,Active,,
O=c1c(O[C@@H]2O[C@H](CO)[C@@H](O)[C@H](O)[C@H]2O)c(-c2ccc(O)cc2)oc2cc(O)cc(O)c12 [ASTRAGALIN],Non-Toxic,Active,,
O=C(/C=C/c1ccc(O)c(O)c1)O[C@@H]1C[C@](O)(C(=O)O)C[C@@H](O)[C@H]1O [CHLOROGENIC ACID],Non-Toxic,,58.44,
O=C(O)[C@H](O[C@@H]1O[C@H](CO)[C@@H](O)[C@H](O)[C@H]1O)c1ccccc1,Non-Toxic,Active,,
